In patent US8846739B2, “TGR5 agonists” (Exelixis Patent Company LLC, priority 2009, dated 2014):

Assays:
h-TGR5 = molecular target: T1, h-TGR5 (Homo sapiens, UniProt Q8TDU6); experiment: TGR5 cAMP Assay using Cisbio cAMP Dynamic 2 htrf assay kit; format: cell-based; settings: hTGR5CRE-luc HEK 293 cells
T1 sequence (Q8TDU6 1-330): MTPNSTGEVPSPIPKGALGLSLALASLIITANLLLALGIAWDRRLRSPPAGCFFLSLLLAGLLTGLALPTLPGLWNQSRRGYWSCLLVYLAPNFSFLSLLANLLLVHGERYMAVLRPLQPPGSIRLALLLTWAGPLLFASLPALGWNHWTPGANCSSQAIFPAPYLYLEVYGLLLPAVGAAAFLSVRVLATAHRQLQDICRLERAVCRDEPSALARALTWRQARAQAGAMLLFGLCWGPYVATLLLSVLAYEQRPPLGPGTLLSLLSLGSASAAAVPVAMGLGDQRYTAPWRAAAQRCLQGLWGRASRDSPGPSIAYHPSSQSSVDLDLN

human TGR5 (h-TGR5) = molecular target: T2, human TGR5 (h-TGR5) (Homo sapiens, UniProt Q8TDU6); experiment: TGR5/CRE-Luciferase Assay; format: cell-based; settings: HEK 293 hTGR5/CRE-Luc cells, 6 hours incubation, read-out: CRE-Luc Agonist (EC50)
T2 sequence (Q8TDU6 1-330): T1 sequence (Q8TDU6 1-330)
Procedure, shortened: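 HEK 293 CRE-Luciferase cells stably expressing the receptor, plated in DMEM 18-20 h before assay, then exposed to serially diluted compounds (DMEM with 5% DMSO) for 6 h. Luciferase read-out after lysis; EC50 from dose-response.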

| EC50 (h-TGR5) [nM] | EC50 (human TGR5 (h-TGR5)) [nM] | Structure (SMILES) |
| --- | --- | --- |
| < 100 | < 100 | COc1cc(C(C)(C)c2cnc(SCc3c(F)cc(S(=O)(=O)N(C)[C@@H](CCC[N+](C)(C)C)C(=O)O)cc3F)n2-c2ccc(F)cc2)ccc1F [Compound 14e, (S)-4-carboxy-4-(3,5-difluoro-4-((5-(2-(4-luoro-3-methoxyphenyl)propan-2-yl)-1-(4-fluorophenyl)-1H-imidazol-2-ylthio)methyl)-N-methylphenylsulfonamido)-N,N,N-trimethylbutan-1-aminium chloride] |
| < 100 | < 100 | COc1cc(C(C)(C)c2cnc(SCc3c(F)cc(S(=O)(=O)N(C)[C@@H](CCC[N+](C)(C)C)C(=O)O)cc3F)n2-c2ccc(F)cc2)cc(F)c1F [Compound 14f, (S)-4-carboxy-4-(4-((5-(2-(3,4-difluoro-5-methoxyphenyl)propan-2-yl)-1-(4-fluorophenyl)-1H-imidazol-2-ylthio)methyl)-3,5-difluoro-N-methylphenylsulfonamido)-N,N-trimethylbutan-1-aminium chloride] |
| < 100 | < 100 | COc1ccc(C(C)(C)c2cnc(SCc3c(F)cc(S(=O)(=O)N(C)[C@@H](CCC[N+](C)(C)C)C(=O)O)cc3F)n2-c2ccc(F)cc2)cc1Cl [Compound 14g, (S)-4-carboxy-4-(4-((5-(2-(3-chloro-4-methoxyphenyl)propan-2-yl)-1-(4-fluorophenyl)-1H-imidazol-2-ylthio)methyl)-3,5-difluoro-N-methylphenylsulfonamido)-N,N,N-trimethylbutan-1-aminium chloride] |
| < 100 | < 100 | CN([C@@H](CCC[N+](C)(C)C)C(=O)O)S(=O)(=O)c1cc(F)c(CSc2ncc(C(C)(C)c3ccc(F)c(Cl)c3)n2-c2ccc(F)cc2)c(F)c1 [Compound 14h, (S)-4-carboxy-4-(4-((5-(2-(3-chloro-4-fluorophenyl)propan-2-yl)-1-(4-fluorophenyl)-1H-imidazol-2-ylthio)methyl)-3,5-difluoro-N-methylphenylsulfonamido)-N,N,N-trimethylbutan-1-aminium chloride] |
| < 100 | < 100 | COc1cc(C(C)(C)c2cnc(CCc3c(F)cc(S(=O)(=O)N(C)[C@@H](CCC[N+](C)(C)C)C(=O)O)cc3F)n2-c2ccc(F)cc2)ccc1Cl [Compound 14i, (S)-4-carboxy-4-(4-(2-(5-(2-(4-chloro-3-methoxyphenyl)propan-2-yl)-1-(4-fluorophenyl)-1H-imidazol-2-yl)ethyl)-3,5-difluoro-N-methylphenylsulfonamido)-N,N,N-trimethylbutan-1-aminium chloride] |
| < 100 | < 100 | CCN(CCC[N+](C)(C)C)S(=O)(=O)c1cc(F)c(CSc2ncc(C(C)(C)c3ccc(F)c(OC)c3)n2-c2ccc(F)cc2)c(Cl)c1 [Compound 14j, 3-[{[3-chloro-5-fluoro-4-({[5-{1-[4-fluoro-3-(methyloxy)phenyl]-1-methylethyl}-1-(4-fluorophenyl)-1H-imidazol-2-yl]thio}methyl)phenyl]sulfonyl} (ethyl)amino]-N,N,N-trimethylpropan-1-aminium] |
| < 100 | < 100 | COc1cc(C(C)(C)c2cnc(SCc3c(F)cc(S(=O)(=O)N(CCC[N+](C)(C)C)C4CC4)cc3Cl)n2-c2ccc(F)cc2)ccc1F [Compound 14k, 3-[{[3-chloro-5-fluoro-4-({[5-{1-[4-fluoro-3-(methyloxy)phenyl]-1-methylethyl}-1-(4-fluorophenyl)-1H-imidazol-2-yl]thio}methyl)phenyl]sulfonyl} (cyclopropyl)amino]-N,N,N-trimethylpropan-1-aminium] |
| < 100 | < 100 | COc1cc(C(C)(C)c2cnc(SCc3c(F)cc(S(=O)(=O)N(CCC[N+](C)(C)C)C(C)C)cc3Cl)n2-c2ccc(F)cc2)ccc1F [Compound 14l, 3-[{[3-chloro-5-fluoro-4-({[5-{1-[4-fluoro-3-(methyloxy)phenyl]-1-methylethyl}-1-(4-fluorophenyl)-1H-imidazol-2-yl]thio}methyl)phenyl]sulfonyl} (1-methylethyl)amino]-N,N,N-trimethylpropan-1-aminium] |
| < 100 | < 100 | CC[N+](C)(C)CCCN(C)S(=O)(=O)c1cc(F)c(CSc2ncc(C(C)(C)c3ccc(F)c(OC)c3)n2-c2ccc(F)cc2)c(Cl)c1 [Compound 14m, 3-[{[3-chloro-5-fluoro-4-({[5-{1-[4-fluoro-3-(methyloxy)phenyl]-1-methylethyl}-1-(4-fluorophenyl)-1H-imidazol-2-yl]thio}methyl)phenyl]sulfonyl} (methyl)amino]-N-ethyl-N,N-dimethylpropan-1-aminium] |
| < 100 | < 100 | COc1cc(C(C)(C)c2cnc(SCc3c(F)cc(S(=O)(=O)N(CCC[N+](C)(C)C)CC(=O)O)cc3Cl)n2-c2ccc(F)cc2)ccc1F [Compound 14n, 3-[(carboxymethyl){[3-chloro-5-fluoro-4-({[5-{1-[4-fluoro-3-(methyloxy)phenyl]-1-methylethyl}-1-(4-fluorophenyl)-1H-imidazol-2-yl]thio}methyl)phenyl]sulfonyl}amino]-N,N,N-trimethylpropan-1-aminium] |
| < 100 | < 100 | COc1cc(C(C)(C)c2cnc(SCc3c(F)cc(S(=O)(=O)N(CCCC[N+](C)(C)C)CC(=O)O)cc3F)n2-c2ccc(F)cc2)ccc1Cl [Compound 14o, 4-[(carboxymethyl){[4-({[5-{1-[4-chloro-3-(methyloxy)phenyl]-1-methylethyl}-1-(4-fluorophenyl)-1H-imidazol-2-yl]thio}methyl)-3,5-difluorophenyl]sulfonyl}amino]-N,N,N-trimethylbutan-1-aminium] |
| < 100 | < 100 | COc1cc(C(C)(C)c2cnc(SCc3c(F)cc(S(=O)(=O)N(CCC[N+](C)(C)C)[C@H](C(=O)O)C(C)C)cc3F)n2-c2ccc(F)cc2)ccc1Cl [Compound 14p, 3-([(1S)-1-carboxy-2-methylpropyl]{[4-({[5-{1-[4-chloro-3-(methyloxy)phenyl]-1-methylethyl}-1-(4-fluorophenyl)-1H-imidazol-2-yl]thio}methyl)-3,5-difluorophenyl]sulfonyl}amino)-N,N,N-trimethylpropan-1-aminium] |
| < 100 | < 100 | COc1cc(C(C)(C)c2cnc(SCc3c(F)cc(S(=O)(=O)N(CCC[N+](C)(C)C)[C@@H](C(=O)O)C(C)C)cc3F)n2-c2ccc(F)cc2)ccc1Cl [Compound 14q, 3-([(1R)-1-carboxy-2-methylpropyl]{[4-({[5-{1-[4-chloro-3-(methyloxy)phenyl]-1-methylethyl}-1-(4-fluorophenyl)-1H-imidazol-2-yl]thio}methyl)-3,5-difluorophenyl]sulfonyl}amino)-N,N,N-trimethylpropan-1-aminium] |
| < 100 | < 100 | COc1cc(C(C)(C)c2cnc(SCc3c(F)cc(S(=O)(=O)N(CCC[N+](C)(C)C)CCC(=O)O)cc3F)n2-c2ccc(F)cc2)ccc1Cl [Compound 14r, 3-[(2-carboxyethyl){[4-({[5-{1-[4-chloro-3-(methyloxy)phenyl]-1-methylethyl}-1-(4-fluorophenyl)-1H-imidazol-2-yl]thio}methyl)-3,5-difluorophenyl]sulfonyl}amino]-N,N,N-trimethylpropan-1-aminium] |
